# From patent US5077405A, “3-(1-Substituted-4-piperazinyl)-1H-indazoles” (Hoechst-Roussel Pharmaceuticals Incorporated, priority 1990, dated 1991)
# Where a name gives a salt, the structure may show the parent alone.
# Key:
# [1] = system: mice; experiment: 2-phenyl-1,4-benzoquinone-induced writhing test in mice (analgesia); assay type: in vivo; settings: Mus musculus, sc, read-out: Dose (subcutaneous) [ED50], inhibition of writhing
# [2] = system: mice; experiment: climbing mice assay (apomorphine-induced climbing; antipsychotic activity); assay type: in vivo, CK-1 male mice; settings: Mus musculus, read-out: Antipsychotic Activity (Climbing Mice Assay) ED50
# Procedure: Antipsychotic activity is determined in the climbing mice assay by methods similar to those described by P. Protais, et al., Psychopharmacol, 50, 1 (1976) and B. Costall, Eur. J. Pharmacol., 50, 39 (1978).
# The subject CK-1 male mice (23-27 grams) are group-housed under standard laboratory conditions. The mice are individually placed in wire mesh stick cages (4"×4"×10") and are allowed one hour for adaptation and exploration of the new environment. Then apomorphine is injected subcutaneously at 1.5 mg/kg, a dose causing climbing in all subjects for 30 minutes. Compounds to be tested for antipsychotic activity are injected intraperitoneally 30 minutes prior to the apomorphine challenge at a screening dose of 10 mg/kg.
# For evaluation of climbing, 3 readings are taken at 10, 20 and 30 minutes after apomorphine administration according to the following scale:
# 4 paws on bottom (no climbing)
# 2 paws on the wall (rearing)
# 4 paws on the wall (full climb)
# Mice consistently climbing before the injection of apomorphine are discarded.
# With full-developed apomorphine climbing, the animals are hanging onto the cage walls, rather motionless over longer periods of time. By contrast, climbs due to mere motor stimulation usually last only a few seconds.
# The climbing scores are individually totaled (maximum score: 6 per mouse over 3 readings) and the total score of the control group (vehicle intraperitoneally-apomorphine subcutaneously) is set to 100%. ED50 values with 95% confidence limits, calculated by a linear regression analysis of some of the compounds of this invention are presented in Table II.
# [3] = mice, subcutaneous, 2-phenyl-1,4-benzoquinone-induced writhing
# [4] = male mice, ip 30 min before apomorphine 1.5 mg/kg sc, linear regression
smiles,measurement,setting,value
CC(=O)n1nc(N2CCN(C)CC2)c2ccccc21 [1-Acetyl-3-(4-methyl-1-piperazinyl)-1H-indazole],ED50,[1],2.1 mg/kg
CN1CCN(c2nn(C(=O)c3ccccc3)c3cc(F)ccc23)CC1 [1-Benzoyl-6-fluoro-3-(4-methyl-1-piperazinyl)-1H-indazole],ED50,[1]; [3],4.3 mg/kg
CN1CCN(c2nn(CC3CC3)c3ccccc23)CC1 [1-Cyclopropylmethyl-3-(4-methyl-1-piperazinyl)-1H-indazole],ED50,[1]; [3],1.5 mg/kg
CCn1nc(N2CCN(C)CC2)c2ccccc21 [1-ethyl-3-(4-methyl-1-piperazinyl)-1H-indazole],ED50,[1],0.5 mg/kg
"c1ccc2c(N3CCNCC3)n[nH]c2c1 [3-(1-piperazinyl)-1H-indazole, 3-(1-Piperazinyl)-1H-indazole]",ED50,[1],0.9 mg/kg
"CN1CCN(c2n[nH]c3ccccc23)CC1 [3-(4-methyl-1-piperazinyl)-1H-indazole, 3-(4-Methyl-1-piperazinyl)-1H-indazole]",ED50,[1],0.04 mg/kg
Cl.Cl.OCCN1CCN(c2n[nH]c3ccccc23)CC1 [3-[4-(2-Hydroxyethyl)-1-piperazinyl]-1H-indazole dihydrochloride],ED50,[1]; [3],2 mg/kg
"Fc1ccc(C(CCCN2CCN(c3n[nH]c4ccccc34)CC2)c2ccc(F)cc2)cc1 [3-[4-[4,4-Bis(4-fluorophenyl)butyl-1-piperazinyl]-1H-indazole hydrochloride]",ED50,[2]; [4],0.87 mg/kg
same,ED50,[1]; [3],3.6 mg/kg
Cc1[nH]c2ccccc2c1CCCN1CCN(c2n[nH]c3ccccc23)CC1 [3-{4-[3-(2-Methylindol-3-yl)propyl]-1-piperazinyl}-1H-indazole hemifumarate],ED50,[2]; [4],0.4 mg/kg
CN1CCN(c2n[nH]c3ccc(Cl)cc23)CC1 [5-Chloro-3-(4-methyl-1-piperazinyl)-1H-indazole],ED50,[1],6.8 mg/kg
Cl.Fc1ccc2c(N3CCNCC3)n[nH]c2c1 [6-Fluoro-3-(1-piperazinyl)-1H-indazole Hydrochloride],ED50,[2]; ip,6.4 mg/kg
CN1CCN(c2n[nH]c3cc(F)ccc23)CC1 [6-Fluoro-3-(4-methyl-1-piperazinyl)-1H-indazole],ED50,[2]; ip,4.7 mg/kg
"O=c1[nH]c2ccccc2n1CCCN1CCN(c2n[nH]c3cc(F)ccc23)CC1 [6-Fluoro-3-{4-[3-(1,3-dihydro-2-oxo-2H-benzimidazol-1-yl)propyl]-1-piperazinyl}-1H-indazole Hemifumarate]",ED50,[2]; [4],0.43 mg/kg
"Cn1nc(N2CCN(CCCCN3C(=O)CC4(CCCC4)CC3=O)CC2)c2ccccc21 [8-[4-[1-(1-Methyl-1H-indazol-3-yl)-4-piperazinyl]butyl-8-azaspiro[4,5]decane-7,9-dione fumarate]",ED50,[2]; [4],7.3 mg/kg
"O=C1CC2(CCCC2)CC(=O)N1CCCCN1CCN(c2n[nH]c3ccccc23)CC1 [8-[4-[1-(1H-indazol-3-yl)-4-piperazinyl]butyl-8-azaspiro[4.5]decane-7,9-dione hemifumarate]",ED50,[2]; [4],0.6 mg/kg
same,ED50,[1]; [3],0.07 mg/kg
"O=C(CCCN1CCC(O)(c2ccc(Cl)cc2)CC1)c1ccc(F)cc1 [haloperidol, reference compound]",ED50,[2]; ip,0.11 mg/kg
"CCC(=O)O[C@](Cc1ccccc1)(c1ccccc1)[C@H](C)CN(C)C [propoxyphene, reference compound]",ED50,[1],3.9 mg/kg
